# Inconclusive results and toxic doses are left out.
# Tested on: CD2F1 mice, L1210 leukemia ip, survival T/C
# Test: NCI In Vivo Anticancer Drug Screen. Data for tumor model L1210 Leukemia (intraperitoneal) in CD2F1 (CDF1) mice
# Conditions: endpoint: mean survival time, higher = longer survival
# Procedure, shortened: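 Mice carrying a transplanted tumor received test compound or vehicle alone. The value is the measurement in the treated group divided by that in the vehicle-treated control group.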
# [1] = dose: 100.0 mg/kg/injection, schedule: Q01DX009 (ip), vehicle: saline with Tween-80
# [2] = dose: 100.0 mg/kg/injection, schedule: Q04DX003 (ip), vehicle: saline with Tween-80
# [3] = dose: 200.0 mg/kg/injection, schedule: Q01DX009 (ip), vehicle: saline with Tween-80
# [4] = dose: 200.0 mg/kg/injection, schedule: Q04DX003 (ip), vehicle: saline with Tween-80
# [5] = dose: 400.0 mg/kg/injection, schedule: Q04DX003 (ip), vehicle: saline with Tween-80
# [6] = dose: 75.0 mg/kg/injection, schedule: Q01DX001 (ip), vehicle: saline
# [7] = dose: 25.0 mg/kg/injection, schedule: Q01DX009 (ip), vehicle: saline with Tween-80
# [8] = dose: 50.0 mg/kg/injection, schedule: Q01DX009 (ip), vehicle: saline with Tween-80
# [9] = dose: 400.0 mg/kg/injection, schedule: Q01DX009 (ip), vehicle: saline with Tween-80
# [10] = dose: 100.0 mg/kg/injection, schedule: Q01DX009 (ip), vehicle: Klucel (hydroxypropylcellulose) (HPC)
# [11] = dose: 200.0 mg/kg/injection, schedule: Q01DX009 (ip), vehicle: Klucel (hydroxypropylcellulose) (HPC)
# [12] = dose: 12.5 mg/kg/injection, schedule: Q01DX005 (ip), vehicle: distilled water + Tween-80
# [13] = dose: 25.0 mg/kg/injection, schedule: Q01DX005 (ip), vehicle: distilled water + Tween-80
# [14] = dose: 50.0 mg/kg/injection, schedule: Q01DX005 (ip), vehicle: distilled water + Tween-80
# [15] = dose: 100.0 mg/kg/injection, schedule: Q01DX005 (ip), vehicle: distilled water + Tween-80
# [16] = dose: 200.0 mg/kg/injection, schedule: Q01DX005 (ip), vehicle: distilled water + Tween-80
# [17] = dose: 150.0 mg/kg/injection, schedule: Q04DX003 (ip), vehicle: saline with Tween-80
# [18] = dose: 100.0 mg/kg/injection, schedule: Q04DX003 (ip), vehicle: saline
# [19] = dose: 200.0 mg/kg/injection, schedule: Q04DX003 (ip), vehicle: saline
# [20] = dose: 400.0 mg/kg/injection, schedule: Q04DX003 (ip), vehicle: saline
smiles,measurement,setting,value
Cc1ccccc1NC(=O)/C=C\C(=O)O,T/C,"dose: 20.0 mg/kg/injection, schedule: Q01DX009 (ip), vehicle: saline with Tween-80",105 % of control
same,T/C,"dose: 20.0 mg/kg/injection, schedule: Q04DX003 (ip), vehicle: saline with Tween-80",102 % of control
same,T/C,"dose: 40.0 mg/kg/injection, schedule: Q01DX009 (ip), vehicle: saline with Tween-80",104 % of control
same,T/C,"dose: 40.0 mg/kg/injection, schedule: Q04DX003 (ip), vehicle: saline with Tween-80",97 % of control
same,T/C,"dose: 80.0 mg/kg/injection, schedule: Q01DX009 (ip), vehicle: saline with Tween-80",102 % of control
same,T/C,"dose: 80.0 mg/kg/injection, schedule: Q04DX003 (ip), vehicle: saline with Tween-80",97 % of control
O=c1cc(-c2ccccc2)[nH]c(-c2ccccc2)c1,T/C,"dose: 100.0 mg/kg/injection, schedule: Q01DX001 (ip), vehicle: saline with Tween-80",100 % of control
same,T/C,[1],89 % of control
same,T/C,[2],89 % of control
same,T/C,"dose: 200.0 mg/kg/injection, schedule: Q01DX001 (ip), vehicle: saline with Tween-80",88 % of control
same,T/C,[3],88 % of control
same,T/C,[4],93 % of control
same,T/C,"dose: 400.0 mg/kg/injection, schedule: Q01DX001 (ip), vehicle: saline with Tween-80",89 % of control
same,T/C,[5],86 % of control
O=C1NCCCS1(=O)=O,T/C,[6],108 % of control
C=CS(=O)(=O)c1ccccc1,T/C,"dose: 18.0 mg/kg/injection, schedule: Q01DX009 (ip), vehicle: saline with Tween-80",96 % of control
same,T/C,"dose: 36.0 mg/kg/injection, schedule: Q01DX009 (ip), vehicle: saline with Tween-80",93 % of control
same,T/C,"dose: 72.0 mg/kg/injection, schedule: Q01DX009 (ip), vehicle: saline with Tween-80",112 % of control
O=C1C(Cl)=C(Cl)C(=O)C(Cl)=C1Cl,T/C,[7],101 % of control
same,T/C,[8],102 % of control
same,T/C,[1],98 % of control
CC[CH2][Sn]([CH2]CC)([CH2]CC)[O][Sn]([CH2]CC)([CH2]CC)[CH2]CC,T/C,"dose: 125.0 micrograms/kg/injection, schedule: Q01DX009 (ip), vehicle: saline",95 % of control
same,T/C,"dose: 250.0 micrograms/kg/injection, schedule: Q01DX009 (ip), vehicle: saline",95 % of control
same,T/C,"dose: 500.0 micrograms/kg/injection, schedule: Q01DX009 (ip), vehicle: saline",106 % of control
same,T/C,"dose: 1000.0 micrograms/kg/injection, schedule: Q01DX009 (ip), vehicle: saline",93 % of control
CC(C)(C)OOC(=O)c1ccc([N+](=O)[O-])cc1,T/C,[1],101 % of control
same,T/C,[3],97 % of control
same,T/C,[9],101 % of control
CN(C)c1ccc(/C=N/NC(=O)c2ccccc2NC(=O)c2ccccc2Cl)cc1,T/C,"dose: 50.0 mg/kg/injection, schedule: Q01DX009 (ip), vehicle: Klucel (hydroxypropylcellulose) (HPC)",87 % of control
same,T/C,[10],94 % of control
same,T/C,[11],91 % of control
CCCCc1c(N)nc(N)nc1N,T/C,"dose: 18.7 mg/kg/injection, schedule: Q01DX001 (ip), vehicle: saline with Tween-80",104 % of control
same,T/C,"dose: 37.5 mg/kg/injection, schedule: Q01DX001 (ip), vehicle: saline with Tween-80",100 % of control
same,T/C,"dose: 75.0 mg/kg/injection, schedule: Q01DX001 (ip), vehicle: saline with Tween-80",109 % of control
O=[N+]([O-])c1cc(F)ccc1O,T/C,[1],96 % of control
OCC1OC(n2cnc3c(/C=C(/O)c4ccccc4)ncnc32)C(O)C1O (configuration not stated),T/C,[12],102 % of control
same,T/C,[13],91 % of control
same,T/C,[14],87 % of control
same,T/C,[15],90 % of control
same,T/C,[16],98 % of control
Cc1ccc2c(ccc(/C=C/c3ccc(O)c4ncccc34)[n+]2C)c1,T/C,"dose: 12.5 mg/kg/injection, schedule: Q01DX009 (ip), vehicle: saline with Tween-80",117 % of control
same,T/C,[7],122 % of control
same,T/C,[8],105 % of control
same,T/C,"dose: 66.0 mg/kg/injection, schedule: Q04DX003 (ip), vehicle: saline with Tween-80",119 % of control
same,T/C,[2],119 % of control
same,T/C,[17],119 % of control
CNC(=S)SCCC(=O)O,T/C,"dose: 100.0 mg/kg/injection, schedule: Q04DX002 (ip), vehicle: saline with Tween-80",113 % of control
same,T/C,"dose: 200.0 mg/kg/injection, schedule: Q04DX002 (ip), vehicle: saline with Tween-80",102 % of control
same,T/C,"dose: 400.0 mg/kg/injection, schedule: Q04DX002 (ip), vehicle: saline with Tween-80",102 % of control
COc1ccc(C(O)(c2ccc(OC)cc2)C(c2ccccc2)c2ccccc2)cc1,T/C,[1],100 % of control
same,T/C,[3],96 % of control
same,T/C,[9],97 % of control
NC(=O)N(CCCl)N=O,T/C,"dose: 1.0 mg/kg/injection, schedule: Q01DX007 (ip), vehicle: saline",292 % of control
same,T/C,"dose: 1.0 mg/kg/injection, schedule: Q01DX009 (ip), vehicle: saline",273 % of control
same,T/C,"dose: 1.0 mg/kg/injection, schedule: Q03DX003 (ip), vehicle: saline",187 % of control
same,T/C,"dose: 1.0 mg/kg/injection, schedule: Q04DX003 (ip), vehicle: saline",188 % of control
same,T/C,"dose: 2.0 mg/kg/injection, schedule: Q01DX007 (ip), vehicle: saline",242 % of control
same,T/C,"dose: 2.0 mg/kg/injection, schedule: Q01DX009 (ip), vehicle: saline",220 % of control
same,T/C,"dose: 2.0 mg/kg/injection, schedule: Q03DX003 (ip), vehicle: saline",286 % of control
same,T/C,"dose: 2.0 mg/kg/injection, schedule: Q04DX003 (ip), vehicle: saline",284 % of control
same,T/C,"dose: 4.0 mg/kg/injection, schedule: Q01DX007 (ip), vehicle: saline",105 % of control
same,T/C,"dose: 4.0 mg/kg/injection, schedule: Q01DX009 (ip), vehicle: saline",101 % of control
same,T/C,"dose: 4.0 mg/kg/injection, schedule: Q04DX003 (ip), vehicle: saline",308 % of control
O=c1ccn(C2OC(CO)C(O)C2O)c(=O)[nH]1 (configuration not stated),T/C,"dose: 12.5 mg/kg/injection, schedule: Q01DX005 (ip), vehicle: Klucel (hydroxypropylcellulose) (HPC)",103 % of control
same,T/C,"dose: 25.0 mg/kg/injection, schedule: Q01DX005 (ip), vehicle: Klucel (hydroxypropylcellulose) (HPC)",101 % of control
same,T/C,"dose: 50.0 mg/kg/injection, schedule: Q01DX005 (ip), vehicle: Klucel (hydroxypropylcellulose) (HPC)",101 % of control
same,T/C,"dose: 100.0 mg/kg/injection, schedule: Q01DX005 (ip), vehicle: Klucel (hydroxypropylcellulose) (HPC)",110 % of control
same,T/C,"dose: 200.0 mg/kg/injection, schedule: Q01DX005 (ip), vehicle: Klucel (hydroxypropylcellulose) (HPC)",105 % of control
CCSC1=[N+](SCC)CCCS1,T/C,[6],103 % of control
CC(=O)NC(C)C(C)(C)O (configuration not stated),T/C,[18],91 % of control
same,T/C,[19],101 % of control
same,T/C,[20],95 % of control
CSc1nc(C)cc(N)n1,T/C,[2],107 % of control
same,T/C,[4],102 % of control
O=C(O)CCCOc1ccc(Cl)cc1Cl,T/C,[18],96 % of control
same,T/C,[19],103 % of control
same,T/C,[20],97 % of control
CC(C)CCCCCc1ccc(OCCOc2ccc(C(=O)Nc3ccc(S(=O)(=O)F)cc3[N+](=O)[O-])cc2)cc1,T/C,[10],91 % of control
same,T/C,[11],92 % of control
same,T/C,"dose: 400.0 mg/kg/injection, schedule: Q01DX009 (ip), vehicle: Klucel (hydroxypropylcellulose) (HPC)",87 % of control
Clc1ccc2c(NCc3ccncc3)ccnc2c1,T/C,[2],96 % of control
same,T/C,[4],95 % of control
same,T/C,[5],96 % of control
COc1ccc2c(Nc3ccc(NS(C)(=O)=O)cc3)c3ccccc3nc2c1,T/C,[7],100 % of control
same,T/C,[8],86 % of control
same,T/C,[2],120 % of control
same,T/C,[17],94 % of control
OCC(O)C(O)C(OC1OC(CO)C(O)C(O)C1O)C(O)CO (configuration not stated),T/C,[8],97 % of control
same,T/C,[1],109 % of control
same,T/C,[3],106 % of control
N#C/C(=C\C1CCC(Cl)C(Cl)C1)C1CCC([N+](=O)[O-])CC1 (configuration not stated),T/C,"dose: 25.0 mg/kg/injection, schedule: Q04DX002 (ip), vehicle: saline with Tween-80",94 % of control
same,T/C,"dose: 50.0 mg/kg/injection, schedule: Q04DX002 (ip), vehicle: saline with Tween-80",88 % of control
COC(=O)CNc1ccn(C2OC(CO)C(O)C2O)c(=O)n1 (configuration not stated),T/C,[12],96 % of control
same,T/C,[13],100 % of control
same,T/C,[14],100 % of control
same,T/C,[15],97 % of control
same,T/C,[16],103 % of control

# Source: PubChem BioAssay AID256 (DTP/NCI, 2004)
